Test results reported in BigSolDB 2.1.

Cc1cnc(NC(=O)C2=C(O)c3ccccc3S(=O)(=O)N2C)s1
solubility (mole fraction)
Conditions | 293.15 K | 298.15 K | 303.15 K | 308.15 K | 313.15 K
in ethanol | 4.47e-05 | 5.67e-05 | 7.52e-05 | 9.37e-05 | 0.000123
in ethyl acetate | 0.000389 | 0.000453 | 0.00053 | 0.000607 | 0.000707
